Measurements from ChEMBL document CHEMBL6134930, “Discovery of AB801, a Potent and Selective Inhibitor of AXL Receptor Tyrosine Kinase for Use in Cancer Therapy” (J Med Chem, 2025).
The source made the active and inactive calls. No cut-off for these calls is given here.

Assays:
[1] = test system: 786-0; experiment: Anti-tumor activity against human 786-0 cells xenografted in mouse model assessed as tumor growth inhibition in presence of sunitinib at 10 mg/kg, po once daily for 15 days; assay type: functional, organism-based; conditions: time 15.0 day
[2] = AUC (0 to 120 hrs) in human (healthy individuals) at 30 mg, single oral dose; assay type: ADME; conditions: in vivo
[3] = Toxicity in mouse xenografted with human 786-0 cells assessed as body weight in presence of sunitinib at 10 mg/kg, po once daily for 15 days; assay type: organism-based; conditions: in vivo, 360 h, time 15 day
[4] = Toxicity in mouse xenografted with human 786-0 cells assessed as body weight at 30 mg/kg, po once daily for 15 days; assay type: organism-based; conditions: in vivo, 360 h, time 15 day
[5] = target: Cytochrome P450 2D6 (Homo sapiens, UniProt P10635); experiment: Inhibition of CYP2D6 (unknown origin) measured after 30 mins; assay type: ADME
Sequence of Cytochrome P450 2D6 (P10635 whole entry): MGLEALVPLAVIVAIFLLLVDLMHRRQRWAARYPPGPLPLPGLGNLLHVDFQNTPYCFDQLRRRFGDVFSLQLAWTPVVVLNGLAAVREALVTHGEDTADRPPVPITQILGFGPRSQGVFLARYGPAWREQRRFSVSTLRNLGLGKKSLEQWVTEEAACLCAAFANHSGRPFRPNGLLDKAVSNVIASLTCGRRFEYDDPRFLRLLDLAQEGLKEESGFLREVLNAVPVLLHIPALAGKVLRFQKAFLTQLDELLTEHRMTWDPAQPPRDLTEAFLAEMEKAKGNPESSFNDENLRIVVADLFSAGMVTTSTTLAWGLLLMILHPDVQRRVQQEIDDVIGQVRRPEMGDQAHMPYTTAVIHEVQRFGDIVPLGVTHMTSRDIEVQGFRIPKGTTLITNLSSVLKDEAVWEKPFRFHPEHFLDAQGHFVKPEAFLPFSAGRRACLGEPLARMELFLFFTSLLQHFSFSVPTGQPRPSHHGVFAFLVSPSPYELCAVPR

[6] = test system: 786-0; experiment: Anti-tumor activity against human 786-0 cells xenografted in mouse model assessed as reduction in tumor volume in presence of sunitinib at 10 mg/kg, po once daily for 15 days; assay type: functional, organism-based; conditions: time 15.0 day
[7] = target: T1, Cytochrome P450 1A2 (Homo sapiens, UniProt P05177); experiment: Inhibition of CYP1A2 (unknown origin) measured after 30 mins; assay type: ADME
T1 sequence (P05177 whole entry): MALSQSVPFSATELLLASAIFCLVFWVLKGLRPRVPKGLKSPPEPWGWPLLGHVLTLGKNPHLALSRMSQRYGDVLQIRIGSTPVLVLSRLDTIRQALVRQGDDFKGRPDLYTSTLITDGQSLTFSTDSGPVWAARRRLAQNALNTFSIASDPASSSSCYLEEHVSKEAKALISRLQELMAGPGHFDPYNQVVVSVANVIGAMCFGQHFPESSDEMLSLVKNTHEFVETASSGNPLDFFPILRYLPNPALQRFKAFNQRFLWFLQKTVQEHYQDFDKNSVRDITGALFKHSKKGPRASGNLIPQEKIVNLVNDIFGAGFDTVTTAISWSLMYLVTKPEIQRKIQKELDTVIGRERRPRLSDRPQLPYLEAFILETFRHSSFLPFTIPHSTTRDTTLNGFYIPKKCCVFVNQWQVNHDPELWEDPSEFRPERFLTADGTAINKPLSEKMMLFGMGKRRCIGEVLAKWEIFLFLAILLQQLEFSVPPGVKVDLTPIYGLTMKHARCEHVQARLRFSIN

[8] = test system: 786-0; experiment: Anti-tumor activity against human 786-0 cells xenografted in mouse model assessed as tumor growth inhibition at 10 mg/kg, po once daily for 15 days; assay type: functional, organism-based; conditions: time 15.0 day
[9] = target: T2, CYP2C8 (Homo sapiens, UniProt P10632); experiment: Time dependent inhibition of CYP2C8 (unknown origin) at 30 uM measured after 30 mins relative to control; assay type: ADME; conditions: read-out: TDI
T2 sequence (P10632 whole entry): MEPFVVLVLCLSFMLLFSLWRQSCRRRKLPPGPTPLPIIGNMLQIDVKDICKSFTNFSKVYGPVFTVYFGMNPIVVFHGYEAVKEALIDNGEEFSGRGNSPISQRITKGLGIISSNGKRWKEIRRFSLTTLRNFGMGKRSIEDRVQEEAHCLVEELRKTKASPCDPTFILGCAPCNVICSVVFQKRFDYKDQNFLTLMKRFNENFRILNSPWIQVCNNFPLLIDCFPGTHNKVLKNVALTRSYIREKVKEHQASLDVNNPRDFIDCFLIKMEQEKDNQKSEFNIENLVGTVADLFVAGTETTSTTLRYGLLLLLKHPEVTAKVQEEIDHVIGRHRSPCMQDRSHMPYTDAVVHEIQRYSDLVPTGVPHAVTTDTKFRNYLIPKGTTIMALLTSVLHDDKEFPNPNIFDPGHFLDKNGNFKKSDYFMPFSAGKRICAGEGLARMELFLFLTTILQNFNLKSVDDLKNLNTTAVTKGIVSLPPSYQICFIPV

[10] = target: Cytochrome P450 2C9 (Homo sapiens, UniProt P11712); experiment: Inhibition of CYP2C9 (unknown origin) measured after 30 mins; assay type: ADME
Sequence of Cytochrome P450 2C9 (P11712 whole entry): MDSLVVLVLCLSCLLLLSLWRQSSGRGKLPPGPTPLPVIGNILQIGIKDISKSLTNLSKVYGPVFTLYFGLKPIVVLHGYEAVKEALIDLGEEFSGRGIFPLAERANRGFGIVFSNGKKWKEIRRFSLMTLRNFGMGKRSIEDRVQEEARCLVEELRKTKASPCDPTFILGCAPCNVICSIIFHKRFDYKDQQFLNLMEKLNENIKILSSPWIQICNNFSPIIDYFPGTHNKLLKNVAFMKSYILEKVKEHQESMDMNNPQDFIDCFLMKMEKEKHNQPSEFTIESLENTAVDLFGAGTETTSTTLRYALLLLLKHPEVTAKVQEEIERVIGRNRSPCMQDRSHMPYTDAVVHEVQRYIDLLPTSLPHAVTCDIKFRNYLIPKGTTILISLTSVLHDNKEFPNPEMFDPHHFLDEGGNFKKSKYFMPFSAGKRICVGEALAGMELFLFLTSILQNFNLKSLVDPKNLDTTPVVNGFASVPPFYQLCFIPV

[11] = Cmax in human (healthy individuals) at 270 mg, single oral dose measured uo to 120 hrs; assay type: ADME; conditions: in vivo
[12] = Cmax in human (healthy individuals) at 90 mg, single oral dose measured uo to 120 hrs; assay type: ADME; conditions: in vivo
[13] = target: T3, CYP3A4 (Homo sapiens, UniProt P08684); experiment: Time dependent inhibition of CYP3A4 (unknown origin) using midazolam as substrate at 30 uM measured after 30 mins relative to control; assay type: ADME; conditions: probe midazolam, read-out: TDI
T3 sequence (P08684 whole entry): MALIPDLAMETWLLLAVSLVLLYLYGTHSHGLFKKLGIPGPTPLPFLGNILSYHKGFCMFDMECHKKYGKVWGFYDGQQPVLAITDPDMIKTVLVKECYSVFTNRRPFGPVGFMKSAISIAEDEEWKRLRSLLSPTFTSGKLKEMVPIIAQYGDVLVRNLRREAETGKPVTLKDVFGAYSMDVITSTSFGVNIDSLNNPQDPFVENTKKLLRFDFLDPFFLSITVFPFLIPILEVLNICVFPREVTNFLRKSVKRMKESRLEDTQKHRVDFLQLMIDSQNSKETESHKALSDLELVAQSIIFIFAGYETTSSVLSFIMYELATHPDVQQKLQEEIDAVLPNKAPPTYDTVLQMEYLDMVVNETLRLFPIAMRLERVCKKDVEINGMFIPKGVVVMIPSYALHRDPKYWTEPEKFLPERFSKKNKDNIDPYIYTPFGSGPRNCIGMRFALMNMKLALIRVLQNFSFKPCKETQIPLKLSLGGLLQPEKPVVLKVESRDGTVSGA

[14] = target: T4, CYP1A2 (Homo sapiens, UniProt P05177); experiment: Time dependent inhibition of CYP1A2 (unknown origin) at 30 uM measured after 30 mins relative to control; assay type: ADME; conditions: read-out: TDI
T4 sequence (P05177 whole entry): T1 sequence (P05177 whole entry)

[15] = Clearance in cynomolgus monkey at 0.5 mg/kg, iv measured up to 24 hrs by LC-MS/MS analysis; assay type: ADME, organism-based, Macaca fascicularis; conditions: in vivo
[16] = Half life in human (healthy individuals) at 270 mg, single oral dose; assay type: ADME; conditions: in vivo
[17] = Clearance in CD-1 mouse at 0.5 mg/kg, iv measured up to 24 hrs by LC-MS/MS analysis; assay type: ADME, organism-based; conditions: in vivo
[18] = target: T3, CYP3A4; experiment: Time dependent inhibition of CYP3A4 (unknown origin) using testosterone as substrate at 30 uM measured after 30 mins relative to control; assay type: ADME; conditions: probe testosterone, read-out: TDI
[19] = Clearance in Sprague-Dawley rat at 0.5 mg/kg, iv measured up to 24 hrs by LC-MS/MS analysis; assay type: ADME, organism-based; conditions: in vivo
[20] = target: CYP2D6 (Homo sapiens, UniProt P10635); experiment: Time dependent inhibition of CYP2D6 (unknown origin) at 30 uM measured after 30 mins relative to control; assay type: ADME; conditions: read-out: TDI
Sequence of CYP2D6 (P10635 whole entry): as the sequence (P10635 whole entry) above

[21] = Clearance in Beagle dog at 0.5 mg/kg, iv measured up to 24 hrs by LC-MS/MS analysis; assay type: ADME, organism-based, Canis lupus familiaris; conditions: in vivo
[22] = AUC (0 to 24 hrs) in human (healthy individuals) at 10 mg, single oral dose; assay type: ADME; conditions: in vivo
[23] = AUC (0 to 24 hrs) in human (healthy individuals) at 270 mg, single oral dose; assay type: ADME; conditions: in vivo
[24] = Tmax in human (healthy individuals) at 90 mg, single oral dose; assay type: ADME; conditions: in vivo
[25] = Cmax in human (healthy individuals) at 30 mg, single oral dose measured uo to 120 hrs; assay type: ADME; conditions: in vivo

In the case of Cc1cccnc1-c1ccc(-c2n[nH]c3ncc(-c4ccc5c(c4)CC[C@@H](N4C6COCC4C6)CC5)cc23)nc1, the Activity [1] is reported as “Active”, the AUC(0-t) [2] is reported as 614 ng·h/mL and the Activity [3] is reported as “Non-toxic”. For the same compound, the Activity [4] was “Non-toxic”, the IC50 [5] was 11 µM and the Activity [6] was “Active”. The IC50 [7] was greater than 100 µM, the Activity [8] was “inactive” and the inhibition at 0.5 h, 30 µM [9] was 0%. The IC50 [10] was 91 µM, the Cmax [11] was 153 ng/mL and the Cmax [12] was 40 ng/mL. For the same compound, the inhibition at 0.5 h, 30 µM [13] was 16%, the inhibition at 0.5 h, 30 µM [14] was 0% and the clearance [15] was 12.7 mL/min/kg. For the same compound, the half-life [16] was 40 h, the clearance [17] was 8.83 mL/min/kg and the inhibition at 0.5 h, 30 µM [18] was 16%. The clearance [19] was 10.8 mL/min/kg, the inhibition at 0.5 h, 30 µM [20] was 0% and the clearance [21] was 25 mL/min/kg. It also gave an AUC(0-t) [22] of 55 ng·h/mL, an AUC(0-t) [23] of 2580 ng·h/mL and a Tmax [24] of 8 h. The Cmax [25] was 12 ng/mL.
